Data on three substances can be found in US20140364483A1, “ALTERNATIVE SPLICING VARIANTS OF GENES ASSOCIATED WITH PROSTATE CANCER RISK AND SURVIVAL” (The George Washington University, priority 2011, published 2014).

Holding throughout (format): cell-based, human
In series [1] the test system is MDA PCa 2b cells. The series is described as follows: Matrigel invasion after siRNA knockdown of splice variants. The note with it: AA PCa cell line MDA PCa 2b. The source says:
(§1) The predominant expression of the L variant and very little to no expression of the S variant in the CA PCa cell line is consistent with the CA patient samples (see PIK3CD in FIG. 4). SiRNA-mediated knockdown of the L variant in VCaP cells leads to a decrease in Matrigel invasion and a decrease in proliferation (FIG. 7A). By comparison, the AA PCa cell line MDA PCa 2b expresses both an L and S variant, and knockdown of the L variant leads to an increase in Matrigel invasion and an increase in proliferation (FIG. 7A). Since VCaP cells express very little to no S variant, targeted siRNA-mediated knockdown of this variant leads to no change in Matrigel invasion and proliferation (FIG. 7B). In contrast, targeted knockdown of the S variant in MDA PCa 2b cells leads to decreased Matrigel invasion and decreased proliferation (since the S variant is found almost exclusively in AA patient samples, it is referred to as the ‘AA variant’) (FIG. 7B). […] Analogous findings were obtained in MDA PCa 2b cells when the ratio of the ‘AA variant’ (S or b isoform) was increased over the ‘CA variant’ (L or an isoform) for the FGFR3, TSC2.
(§2) For RASGRP2, the long variant (with exon 10) is common to both AA and CA patients, whereas the short variant (without exon 10) is unique to AA. Targeted knockdown of the long splicing variant in VCaP cells reduced Matrigel invasion and an increase in proliferation (FIG. 8).

The subject of series [2] is VCaP cells. Described as above. The note with it: CA PCa cell line VCaP.
Excerpt: as §1, §2

The test system of series [3] is MDA PCa 2b cells. Kind of series: Cell proliferation after siRNA knockdown of splice variants. To be noted: AA PCa cell line MDA PCa 2b.
Excerpt: as §1, §2

Series [4] has as its system VCaP cells. The description is as above. The note with it: CA PCa cell line VCaP.
Excerpt: as §1, §2

In a further series the test system is AKT pathway. The series is described as follows: AKT pathway phosphorylation after knockdown of PIK3CD long variant. The source says: Activation of AKT is known to promote cell growth and mRNA translation (FIG. 9a). When the expression of PIK3CD “long” variant is knocked down by siRNA targeting of Exon 23 in the VCaP cell line, which only expresses the long variant, there is a decrease of phosphorylation of AKT, compared to nonsense siRNA control, and also decrease of phosphorylation of downstream signaling proteins mTOR and S6 (FIG. 9b). […] In other words, increasing S/L variants proportion in MDA PCa 2b cells activates the AKT pathways.

Setting [5] is: VCaP cell line, compared to nonsense siRNA control.

d = 2'-deoxy (DNA); r = 2'-OH (RNA); {P} = phosphate

As to “siPIK3CD-S: siRNA duplex SEQ ID Nos. 12 and 13, sense 5′ UGAGGGAGGCCCUGGAUCGAdTdT 3′; knocks down PIK3CD short variant (antisense UCGAUCCAGGGCCUCCCUCA; sense: RNA, 3' dTdT, backbone not given here; antisense: RNA, 5' {P}, 3' dTdT, backbone not given here)”, the Matrigel invasion entry with MDA PCa 2b cells [1] is listed as “decreased”; with VCaP cells [2], “no change”. In addition, the proliferation result is on record as “decreased” in the series on MDA PCa 2b cells [3] and “no change” with VCaP cells [4].
For the substance “siPIK3CD-ex23: siRNA duplex SEQ ID Nos. 4 and 5, sense 5′ CCAACAUCCAACUCAACAAdTdT 3′; knocks down PIK3CD long variant (antisense UUGUUGAGUUGGAUGUUGG; sense: RNA, 3' dTdT, backbone not given here; antisense: RNA, 5' {P}, 3' dTdT, backbone not given here)”, in the series with MDA PCa 2b cells [1], the Matrigel invasion result is “increase”. Also, in the series on VCaP cells [2], the Matrigel invasion result is reported as “decrease”. For the same substance, the proliferation entry in the series on MDA PCa 2b cells [3] is “increase”. The proliferation entry in the series on VCaP cells [4] was “decrease”. Besides, in the series with AKT pathway (MDA PCa 2b cells), the “AKT phosphorylation, both on Thr308 and Ser473” value is given as “markedly increases”; the “phosphorylation of mTOR and S6” value is recorded as “increases”. Moreover, in the series on AKT pathway (setting [5]), the “phosphorylation of AKT” value is reported as “decrease”; the “phosphorylation of downstream signaling proteins mTOR and S6” value is “decrease”.
“siRNA targeting RASGRP2 exon 10: siRNA duplex SEQ ID Nos. 40 and 41, sense 5′ GUGGAGCACAUCGAGAAGAdTdT 3′; long variant contains exon 10 (sense GUGGAGCACAUCGAGAAGATT; antisense UCUUCUCGAUGUGCUCCAC; sense: sugars from the 5' end r19 d2, backbone not given here; antisense: chemistry not given here)”: the Matrigel invasion result in the series on MDA PCa 2b cells [1] was “opposite effect”; in the series on VCaP cells [2], “reduced”. Besides, the proliferation result in the series with MDA PCa 2b cells [3] is reported as “opposite effect”; with VCaP cells [4] it was “increase”.
